Source: publication PMC7801616, “Surface hydrophobics mediate functional dimerization of CYP121A1 of Mycobacterium tuberculosis” (Scientific Reports, 2021)

What was measured:
[1] = system: CYP121A1 dimer; conditions: cited from earlier work
[2] = system: WT CYP121A1
[3] = system: Mtb; conditions: cited from earlier work
[4] = system: WT CYP121A1 heme thiolate-CO complex

Clc1ccccc1C(c1ccccc1)(c1ccccc1)n1ccnc1 [clotrimazole]
effect on dimerization of the enzyme [1]: disrupts dimerization of the enzyme

CC(=O)N1CCN(c2ccc(OCC3COC(Cn4ccnc4)(c4ccc(Cl)cc4Cl)O3)cc2)CC1 (centres unmarked) [ketoconazole]
effect of ligand on thermal stability [2]: modest increase in the stability | inhibition of Mtb growth [3]: does not significantly inhibit Mtb growth

Clc1ccc(COC(Cn2ccnc2)c2ccc(Cl)cc2Cl)cc1 (centres unmarked) [econazole]
effect on dimerization of the enzyme [1]: disrupts dimerization of the enzyme

O=C1N[C@@H](Cc2ccc(O)cc2)C(=O)N[C@H]1Cc1ccc(O)cc1 [cYY, cyclo-L-Tyr-L-Tyr]
change of heme thiolate-CO complex stability with bound substrate [4]: little change
